A word on the EC50: it is the midpoint of the concentration-response curve.

Calls of active or inactive are those of the source. The rule behind the calls is not given here.

The assay deals with parental cell line counter screen, S1P1 agonist assay readout. The assay can be described thus: signal in parental cells, counter-screen for S1P1 agonist project (AID 467).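 Note: agonist potency measured against forskolin stimulation plus an EC20 level of SEW2871.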
`O=C(CSc1nnc(-c2c[nH]c3ccccc23)o1)N1c2ccccc2CCc2ccccc21`: the EC50 is > 95.1 µM (inactive).

On to `Cc1ccc(OCCn2cc(/C(N)=N/O)c3ccccc32)cc1C`, for which the EC50 was 17 µM (inactive).

For `CC1CCCC(C)N1C(=O)CN1CCN(c2nc(-c3ccc(F)cc3)cs2)CC1` (centres undefined), the EC50 is 21.7 µM (inactive).

Regarding `Oc1ccc(-c2nnc(-c3ccc(O)cc3)nn2)cc1`, the EC50 was > 95.1 µM (inactive).

Regarding `CCOc1ccc(-c2nc(CSCC(=O)N3CCN(c4cccc(OC)c4)CC3)c(C)o2)cc1`, the EC50 was 19.4 µM (inactive).

`CCCCn1nnnc1SCC(=O)c1ccc(C)c(C)c1`: the EC50 is > 95.1 µM (inactive).

Regarding `Cc1cc(C(=O)CSc2nnc(-c3ccco3)o2)c(C)n1-c1ccc2c(c1)OCCO2`, the EC50 is > 10 µM (inactive).

For `Cc1cc(/C=c2/sc3nc4ccccc4n3c2=O)c(C)n1-c1ccccn1`, the EC50 is > 95.1 µM (inactive).

As to `Cc1ccccc1-c1noc(-c2ccc(O)cc2)n1`, the EC50 was 25 µM (inactive).

In the case of `Cc1cccc(-c2nc(CSCC(=O)N3CCN(Cc4ccc5c(c4)OCO5)CC3)c(C)o2)c1`, the EC50 was 30.5 µM (inactive).

For the compound `OC(c1cccc(OCc2ccccc2)c1)c1nnc(-c2ccccc2)o1` (centres undefined), the EC50 is > 30 µM (inactive).

As for `O=C(CSc1nnc(Cn2nnc3ccccc32)o1)N(Cc1ccc(F)cc1)c1ccccc1`, the EC50 was 30.6 µM (inactive).

Take `COc1ccc(-c2cn3c(C)c(C(=O)N4CCCc5ccccc54)sc3n2)cc1`: the EC50 was > 95.1 µM (inactive).

As to `Cc1noc(/C=C/N(C)C)c1S(=O)(=O)N1CCN(c2ccccc2)CC1`, the EC50 is > 95.1 µM (inactive).

For `c1ccc(CSc2nnc(-c3c[nH]c4ccccc34)o2)cc1`, the EC50 was 41.4 µM (inactive).

As for `Cc1occc1C(=O)N1CCN(c2ccc(Cl)c(Cl)c2)CC1`, the EC50 is 43.9 µM (inactive).

Take `CCOC(=O)N1CCC(NC(=O)C2CCCN(Cc3nc(-c4cccc(Cl)c4)oc3C)C2)CC1` (centres undefined): the EC50 was > 95.1 µM (inactive).

Take `CCC(C)c1ccc2oc(-c3ccc(NC(=O)Cn4cnc5c(=O)n(C)c(=O)n(C)c54)cc3)nc2c1` (centres undefined): the EC50 was > 95.1 µM (inactive).

Consider `CC(C)Cc1cc(C(=O)Nc2cc(Br)ccc2O)no1`, for which the EC50 is > 10 µM (inactive).

As to `CCc1oc2ccccc2c1C(=O)c1cc(Br)c(O)c(Br)c1`, the EC50 is 13.5 µM (inactive).

With `COCCN(C(=O)c1ccccc1)c1nnc(-c2cccnc2)s1`, the EC50 is > 95.1 µM (inactive).

Take `O=C(Nc1cccc(C(F)(F)F)c1)N1CCC(c2nc(-c3ccc(F)cc3)no2)CC1`: the EC50 was 14.4 µM (inactive).

On to `N#Cc1nc(-c2ccc(OCc3ccccc3)cc2)oc1NCc1cccnc1`, for which the EC50 is > 95.1 µM (inactive).

`CCc1cc2c(N3CCN(c4ccccc4)CC3)ncnc2s1`: the EC50 is 16.3 µM (inactive).

On to `COc1ccc2c(c1)CCc1c(C(=O)NC3CCCCC3)noc1-2`, for which the EC50 is > 95.1 µM (inactive).

Turning to `Cc1ccccc1OCCCCc1c(C)n[nH]c1C`, the EC50 is > 30 µM (inactive).

For `O=S(=O)(Nc1ccc2c(c1)OCCO2)c1ccc2oc3ccccc3c2c1`, the EC50 was 16.4 µM (inactive).

As for `Cn1nc(C(C)(C)C)cc1C(=O)NCc1ccc(N2CCCC2=O)cc1`, the EC50 was > 30 µM (inactive).

For `O=C(Nc1ccc(O)cc1)c1cc2n(n1)C(C(F)(F)F)CC(c1ccco1)N2` (centres undefined), the EC50 is > 95.1 µM (inactive).

Regarding `CCCOc1ccc(S(=O)(=O)NCc2ccc(OC)cc2)cc1`, the EC50 was > 30 µM (inactive).

`COc1ccccc1-c1cc(C(=O)Nc2ccccc2SC)no1`: the EC50 is > 95.1 µM (inactive).

Consider `O=c1[nH]nc(Sc2ncnc3sccc23)n1CCc1ccccc1`, for which the EC50 was 21.1 µM (inactive).

Consider `Cn1nc(CC(=O)Nc2ccc3c(c2)OCCO3)c2ccccc2c1=O`, for which the EC50 was > 30 µM (inactive).

Turning to `O=C(NCc1ccc2c(c1)OCO2)C1CC(=O)N(C2CCCCCCC2)C1` (centres undefined), the EC50 was > 95.1 µM (inactive).
